According to publication PMC4600463 (European journal of medicinal chemistry, 2015):
“Also recorded” adds a separate entry of the source.

Biological target: Keap1 (Kelch domain) (Homo sapiens, UniProt Q14145)
Settings: SAR discussion

Sequence of Keap1 (Kelch domain) (Q14145 321-609): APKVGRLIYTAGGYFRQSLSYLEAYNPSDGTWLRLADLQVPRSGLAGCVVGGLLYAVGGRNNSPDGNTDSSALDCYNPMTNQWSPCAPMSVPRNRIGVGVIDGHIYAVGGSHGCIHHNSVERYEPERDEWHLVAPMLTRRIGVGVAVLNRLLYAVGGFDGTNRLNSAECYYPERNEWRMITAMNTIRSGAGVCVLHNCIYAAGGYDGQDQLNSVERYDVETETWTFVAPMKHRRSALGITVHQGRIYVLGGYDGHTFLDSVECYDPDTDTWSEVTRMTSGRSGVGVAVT

SMILES	Activity in fluorescence anisotropy assay (in words)
COc1ccc(S(=O)(=O)N(CC(=O)O)c2cccc3ccccc23)cc1 [Compound 18, N-((4-methoxyphenyl)sulfonyl)-N-(naphthalen-1-yl)glycine]	inactive
COc1ccc(S(=O)(=O)N(CC(N)=O)c2cc(N(CC(N)=O)S(=O)(=O)c3ccc(OC)cc3)c3ccccc3c2)cc1 [Compound 21, 2,2′-(naphthalene-1,3-diylbis(((4-methoxyphenyl)sulfonyl)azanediyl))diacetamide]	loss of activity; also recorded: inactive
COc1ccc(S(=O)(=O)Nc2cccc3ccccc23)cc1 [Compound 17, 4-methoxy-N-(naphthalen-1-yl)benzenesulfonamide]	inactive
COc1ccc(S(=O)(=O)N(CC(=O)O)c2cc(N(CC(=O)O)S(=O)(=O)c3ccc(OC)cc3)c3ccccc3c2)cc1 [Compound 22, 2,2′-(naphthalene-1,3-diylbis(((4-methoxyphenyl)sulfonyl)azanediyl))acetic acid]	loss of activity
COc1ccc(S(=O)(=O)Nc2cc3ccccc3cc2N(CC(N)=O)S(=O)(=O)c2ccc(OC)cc2)cc1 [Compound 23, 2-(naphthalene-2,3-diylbis(((4-methoxyphenyl)sulfonyl)azanediyl))acetamide]	loss of activity; also recorded: inactive
COc1ccc(S(=O)(=O)Nc2cc3ccccc3cc2NS(=O)(=O)c2ccc(OC)cc2)cc1 [Compound 20, N,N′-(naphthalene-2,3-diyl)bis(4-methoxybenzenesulfonamide)]	loss of activity
COc1ccc(S(=O)(=O)Nc2cc(NS(=O)(=O)c3ccc(OC)cc3)c3ccccc3c2)cc1 [Compound 19, N,N′-(naphthalene-1,3-diyl)bis(4-methoxybenzenesulfonamide)]	loss of activity

The remaining lines, values ahead:

Activity in fluorescence anisotropy assay (in words)	SMILES
inactive	O=S(=O)(Nc1ccc(NS(=O)(=O)c2cccc(C(F)(F)F)c2)c2ccccc12)c1cccc(C(F)(F)F)c1 [Compound 11f, N,N′-(naphthalene-1,4-diyl)bis(3-trifluoromethylbenzenesulfonamide)]
inactive	O=S(=O)(Nc1ccc(NS(=O)(=O)c2ccccc2)c2ccccc12)c1ccccc1 [Compound 11a, N,N′-(naphthalene-1,4-diyl)dibenzenesulfonamide]
inactive	O=C(O)c1cccc(S(=O)(=O)Nc2ccc(NS(=O)(=O)c3cccc(C(=O)O)c3)c3ccccc23)c1 [Compound 11d, 3,3′-(((4-(hydrosulfonylamino)naphthalen-1-yl)amino)sulfonyl)dibenzoic acid]
